“Also recorded” adds a separate entry of the source. Read-outs that look alike come from different tables or passages of the source.
How the values were obtained:
[1] = target: SzeaOBP1 (Sitophilus zeamais, UniProt A0A4P9CZ78); test: Fluorescence competitive binding assay (1-NPN probe) with recombinant SzeaOBP1; settings: for binding to SzeaOBP1, in words: fluorescence competitive binding
Protocol: (§1) Emission fluorescence spectra were recorded on a Fluoromax-4500 fluorescence spectrophotometer (Hitachi, Tokyo, Japan) at room temperature in right-angle configuration, with a 1 cm light-path quartz cuvette and 5 nm slits for both excitation and emission. The protein was dissolved in 50 mM Tris-HCl buffer (pH 7.4), and ligands were added as 1 mM methanol solutions. A methanol solution of N-Phenyl-1-naphthylamine (1-NPN) (1 mM) was used as the fluorescent probe, and chromatography-grade methanol was used as the solvent. For determination of the binding constants of the SzeaOBPs with the probe, the excitation wavelength was set at 337 nm, and the emission wavelength was increased from 370 to 500 nm for scanning. The target SzeaOBP proteins were diluted in Tris-HCl buffer (pH 7.4) to a final concentration of 2 μM. After the sample was added, the fluorescence intensity was allowed to stabilize (approximately 15 s), and the maximum fluorescence intensity was recorded; the binding constant between the protein and probe was determined. This process was repeated three times for each sample. Then, the ligands (odorant standard samples) were diluted with pure methanol for competitive binding analysis. The final concentration of each ligand was […]. The final concentration of ligands in the colorimetric dish increased by 2 μM upon adding the ligands one by one. […] The binding constants between the target SzeaOBP proteins and the ligands were determined. The fluorescence intensity was measured by adding 50 mM Tris-HCl buffer, SzeaOBP protein, and the fluorescence probe 1-NPN to the colorimetric dish for fluorescence measurement. The final concentration was 2 μM. When the fluorescence intensity was stable, the maximum fluorescence intensity was recorded, and then the ligands dissolved in methanol were added to the colorimetric dish one by one. The concentration increased from 2 μM, and the changes in fluorescence intensity were recorded. Each measurement was repeated three times.
(§2) To calculate the binding constants, the fluorescence intensity and ligand concentration were plotted using GraphPad Prism 5. Assuming that 1-NPN binds to the protein at a 1:1 ratio and that the protein was 100% active, the curve was linearized using a Scatchard plot.

[2] = target: SzeaOBP28 (Sitophilus zeamais, UniProt A0A4V1GPX2); test: Fluorescence competitive binding assay (1-NPN probe) with recombinant SzeaOBP28; settings: for binding to SzeaOBP28, in words: fluorescence competitive binding
Protocol: as §1, §2

[3] = tested on: adult S. zeamais; test: Behavioural experiment in a Y-tube olfactometer, normal adults; assay type: in vivo, Sitophilus zeamais; settings: normal insects, 10 min observation
Protocol: The behavioral experiments were designed to test the results for selected odorants. The odorant compounds used in behavioral experiments are from Table 1. To avoid the effects of temperature and light on the experiment, the evaluations were performed in a constant temperature and humidity (CTH) room at 28 ± 1 °C and 80% relative humidity under dim light supplied by a red fluorescent tube with no natural lighting. A Y-tube olfactometer system that was previously described by Yusuf and Takabayashi was used to test the attractiveness of different odorant treatments to adult maize weevils. The system comprised a central tube (10 cm long) and two lateral arms (each 15 cm long and 15 mm wide). The angles between the two arms were 75°. Each arm was connected to a glass chamber (200 mL capacity) holding the different odorants. The different parts of the device were connected in the following order: air pump, activated carbon filter, distilled water humidifier, odorant source device, gas flow meter, and Y-tube olfactometer. The parts were connected by Teflon tubes. Airflow through both arms was generated by applying air pressure, and the air was purified using a charcoal-filled gas wash bottle. The airflow through the arms of the Y-tube (150 mL/min/arm) was adjusted by using flow metres, which were positioned between the flasks and the Y-tube. A clean Y-tube was used for each test to avoid carryover of odorants.
Before bioassays, according to the experimental requirements, the odorant source was placed in the odorant source device, which was then ventilated for 15 min so that the odorant filled the tube to ensure accuracy of the test results. The antennae and appendages of the selected insects were verified to be intact, and the insects were confirmed to be active. The insects were introduced from the base of the main arm of the Y-tube olfactometer. The selected odorant was used for the treatment group, and a blank was used for the control group. A single adult S. zeamais insect was introduced into the Y-tube olfactometer at the entrance of the stem, with a maximum observation duration of 10 min per beetle, and the responses were considered positive when the insects reached at least 2 cm along the arm connected to the test chambers. […] Insects were used only once and then discarded. Each odorant was used to test 30 adult maize weevils, and the number of male and female insects per test was the same. Three groups of experiments were repeated for three times.

[4] = calculated from IC50 with K1-NPN 8.590 μM, protein and 1-NPN 2 μM, Tris-HCl pH 7.4, read-out: Ki SzeaOBP1
[5] = displacement of 1-NPN, protein and 1-NPN 2 μM, Tris-HCl pH 7.4, read-out: IC50 SzeaOBP1
[6] = calculated from IC50 with K1-NPN 7.214 μM, protein and 1-NPN 2 μM, Tris-HCl pH 7.4, read-out: Ki SzeaOP28
[7] = displacement of 1-NPN, protein and 1-NPN 2 μM, Tris-HCl pH 7.4, read-out: IC50 SzeaOP28

SzeaOBP28, sequence (A0A4V1GPX2 entry or part of it): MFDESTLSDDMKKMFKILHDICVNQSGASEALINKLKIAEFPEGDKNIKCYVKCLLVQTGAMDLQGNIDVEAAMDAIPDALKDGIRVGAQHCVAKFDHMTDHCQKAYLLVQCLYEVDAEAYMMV
SzeaOBP1, sequence (A0A4P9CZ78 entry or part of it): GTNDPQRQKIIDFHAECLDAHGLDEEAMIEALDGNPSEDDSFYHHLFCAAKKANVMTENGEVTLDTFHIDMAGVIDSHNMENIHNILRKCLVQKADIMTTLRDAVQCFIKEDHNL

Ki [1, 4] | IC50 [1, 5] | Ki [2, 6] | IC50 [2, 7] | Structure (SMILES) | other results
4.42 ± 0.095 µM | 5.18 ± 0.111 µM | 48.2 ± 1.1 µM | 58.9 ± 1.34 µM | CCCCCCCCC=O [Nonanal] | –
4.67 ± 0.159 µM | 5.47 ± 0.186 µM | > 49.2 µM | > 60 µM | CCCCCCO [Ligand 1-Hexanol, 1-Hexanol] | –
15.7 ± 0.717 µM | 18.4 ± 0.84 µM | > 49.2 µM | > 60 µM | CC(=O)O [Acetic acid (glacial)] | –
6.51 ± 0.163 µM | 7.62 ± 0.191 µM | > 49.2 µM | > 60 µM | CC(C)CC=O [3-Methylbutanal] | –
4.2 ± 0.087 µM | 4.92 ± 0.102 µM | > 49.2 µM | > 60 µM | CCC(C)C=O (stereo not drawn) [2-Methylbutyraldehyde] | behavioural response (attraction) of male and female adults vs blank control [3]: Significant differences
30.3 ± 0.798 µM | 35.5 ± 0.931 µM | > 49.2 µM | > 60 µM | C=CC(=C)CCC=C(C)C [Myrcene (stabilized with BHT)] | –
4.88 ± 0.103 µM | 5.71 ± 0.121 µM | > 49.2 µM | > 60 µM | CCCCC=O [Valeraldehyde] | behavioural response (attraction) of male and female adults vs blank control [3]: responded strongly
24.2 ± 1.78 µM | 28.3 ± 2.08 µM | 40.8 ± 1.41 µM | 49.7 ± 1.72 µM | CCCCCCCCCCCCCCCC(=O)O [Palmitic Acid, Palmitic acid] | –
4.87 ± 0.111 µM | 5.71 ± 0.13 µM | > 49.2 µM | > 60 µM | CCCCCCC=O [Heptaldehyde] | –

The next lines start with the compound.

Structure (SMILES) | Ki [1, 4] | IC50 [1, 5] | Ki [2, 6] | IC50 [2, 7] | other results
CCCCCCCCCC=O [Decanal] | > 51.2 µM | > 60 µM | > 49.2 µM | > 60 µM | binding to SzeaOBP1, in words [1]: did not bind; binding to SzeaOBP28, in words [2]: did not bind
CCCCCC=O [1-Pentanecarbaldehyde] | – | – | – | – | IC50 [1]: 6.07 ± 0.154 µM; Ki [1]: 5.18 ± 0.132 µM; IC50 [2]: 59.4 ± 1.21 µM; Ki [2]: 48.7 ± 0.852 µM
O=Cc1ccccc1 [Benzaldehyde] | – | – | – | – | IC50 [1]: 5.2 ± 0.092 µM; Ki [1]: 4.44 ± 0.079 µM; IC50 [2]: > 60 µM; Ki [2]: > 49.2 µM
CCCCC/C=C\C/C=C\CCCCCCCC(=O)O [Linoleic acid] | > 51.2 µM | > 60 µM | > 49.2 µM | > 60 µM | binding to SzeaOBP1, in words [1]: did not bind; binding to SzeaOBP28, in words [2]: did not bind
CC(C)=O [Acetone] | 4.54 ± 0.172 µM | 5.32 ± 0.201 µM | 39.8 ± 0.731 µM | 48.6 ± 0.861 µM | –
CCCC(C)=O [Ligand 2-Pentanone, 2-Pentanone] | – | – | – | – | IC50 [1]: 11.6 ± 0.312 µM; Ki [1]: 9.92 ± 0.267 µM; IC50 [2]: > 60 µM; Ki [2]: > 49.2 µM
CCCCCCCCCCCCCCCC [N-Hexadecane, N-hexadecane] | > 51.2 µM | > 60 µM | > 49.2 µM | > 60 µM | –
COc1cc(C=O)ccc1O [4-Hydroxy-3-methoxybenzaldehyde] | – | – | – | – | IC50 [1]: 4.37 ± 0.203 µM; Ki [1]: 3.73 ± 0.173 µM; IC50 [2]: 24.7 ± 2.34 µM; Ki [2]: 20.2 ± 1.92 µM; binding to SzeaOBP28, in words [2]: pronounced binding affinity; behavioural response (attraction) of male and female adults vs blank control [3]: responded strongly; also recorded: stimulated activity in a significantly higher number of normal male and female weevils than the control treatment
CCCCCCCC=O [n-Octanaldehyde] | 3.22 ± 0.103 µM | 3.77 ± 0.12 µM | > 49.2 µM | > 60 µM | behavioural response (attraction) of male and female adults vs blank control [3]: no obvious effect
Cc1occc(=O)c1O [Maltol (3-hydroxy-2-methyl-4-pyrone)] | 5.28 ± 0.333 µM | 6.18 ± 0.39 µM | > 49.2 µM | > 60 µM | –
CC(=O)CCC=C(C)C [6-Methyl-5-hepten-2-one] | – | – | – | – | IC50 [1]: 6.5 ± 0.15 µM; Ki [1]: 5.55 ± 0.128 µM; IC50 [2]: 45.8 ± 1.23 µM; Ki [2]: 37.6 ± 1.01 µM
CCCCCCCCCCCCCCC [Pentadecane] | > 51.2 µM | > 60 µM | > 49.2 µM | > 60 µM | –
COCCOC(=O)c1ccccc1C(=O)OCCOC [Bis(methylglycol) phthalate, Bis(2-methoxyethyl) phthalate] | – | – | – | – | IC50 [1]: 4.76 ± 0.147 µM; Ki [1]: 4.07 ± 0.125 µM; IC50 [2]: 38.87 ± 0.2 µM; Ki [2]: 31.86 ± 0.164 µM
c1ccc(Nc2cccc3ccccc23)cc1 [Ligand 1-NPN, N-Phenyl-1-naphthylamine, reference compound] | – | – | – | – | Kd [1]: 8.59 µM; Kd [2]: 7.21 µM
CCCCCCCCO [Capryl alcohol] | 6.67 ± 0.199 µM | 7.81 ± 0.233 µM | > 49.2 µM | > 60 µM | –
CC1=CC[C@@H]2C[C@H]1C2(C)C [(+)-a-Pinene] | > 51.2 µM | > 60 µM | > 49.2 µM | > 60 µM | binding to SzeaOBP1, in words [1]: did not bind; binding to SzeaOBP28, in words [2]: did not bind
CC(C)C=O [Isobutyraldehyde] | 4.26 ± 0.138 µM | 4.99 ± 0.162 µM | > 49.2 µM | > 60 µM | –
CCCCCCCCCO [Ligand 1-Nonanol, 1-Nonanol] | 6.94 ± 0.234 µM | 8.13 ± 0.274 µM | > 49.2 µM | > 60 µM | –
CCCCCCCCCCCCCCCCO [Cetanol] | 2.75 ± 0.139 µM | 3.22 ± 0.162 µM | > 49.2 µM | > 60 µM | binding to SzeaOBP1, in words [1]: extremely high binding affinity; behavioural response (attraction) of male and female adults vs blank control [3]: Significant differences
